Some results are limits rather than exact numbers.

For the experiment, the target named is T1, A. baumannii PBP1a (Acinetobacter baumannii, UniProt A0ABX6CK30).
T1 sequence (A0ABX6CK30 1-851): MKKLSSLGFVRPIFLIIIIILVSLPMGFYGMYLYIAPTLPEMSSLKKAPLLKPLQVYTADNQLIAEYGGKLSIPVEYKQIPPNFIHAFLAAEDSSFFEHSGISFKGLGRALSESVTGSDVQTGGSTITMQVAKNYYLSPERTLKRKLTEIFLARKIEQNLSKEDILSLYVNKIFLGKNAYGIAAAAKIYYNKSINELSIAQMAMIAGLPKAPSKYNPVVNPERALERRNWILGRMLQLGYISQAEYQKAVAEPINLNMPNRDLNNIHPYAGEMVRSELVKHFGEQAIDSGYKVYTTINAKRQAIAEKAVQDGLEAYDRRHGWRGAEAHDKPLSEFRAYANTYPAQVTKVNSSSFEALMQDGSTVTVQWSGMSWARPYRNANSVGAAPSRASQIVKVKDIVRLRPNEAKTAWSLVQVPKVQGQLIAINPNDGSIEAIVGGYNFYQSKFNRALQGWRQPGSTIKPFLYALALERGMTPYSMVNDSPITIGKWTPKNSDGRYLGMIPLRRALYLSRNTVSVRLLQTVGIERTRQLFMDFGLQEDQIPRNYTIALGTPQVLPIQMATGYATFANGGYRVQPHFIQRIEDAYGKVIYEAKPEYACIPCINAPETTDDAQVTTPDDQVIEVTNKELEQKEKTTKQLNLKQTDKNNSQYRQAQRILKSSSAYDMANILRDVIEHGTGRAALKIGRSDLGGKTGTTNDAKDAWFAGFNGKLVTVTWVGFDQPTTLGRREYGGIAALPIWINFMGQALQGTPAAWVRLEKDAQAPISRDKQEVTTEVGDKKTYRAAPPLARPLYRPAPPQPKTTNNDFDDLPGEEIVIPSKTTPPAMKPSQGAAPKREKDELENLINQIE
Put plainly: Bocillin-FL competition binding via gel filtration, A. baumannii PBP1a. As to conditions: competition binding assay using Bocillin-FL via gel filtration; read-out: A. baumannii PBP1a Potency. The procedure, abridged:
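Competitive equilibrium binding; reporter Bocillin-FL. PBP + inhibitor (titration) pre-incubated → Bocillin-FL, 15 min → gel filtration → fluorescence. EC50 from Hill fit of fraction bound vs [inhibitor].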
On the technique in general: In gel filtration, larger molecules generally elute earlier.
Consider `CN(CCN1CCN(C(=O)N[C@@H](C(=O)N[C@H]2Cc3ccc(F)c(C(=O)O)c3OB2O)c2cc(F)c(O)c(O)c2Cl)C(=O)C1=O)Cc1cccnc1` [Example 201, (R)-3-((R)-2-(2-chloro-5-fluoro-3,4-dihydroxyphenyl)-2-(4-(2-(methyl(pyridin-3-ylmethyl)amino)ethyl)-2,3-dioxopiperazine-1-carboxamido)acetamido)-7-fluoro-2-hydroxy-3,4-dihydro-2H-benzo[e][1,2]oxaborinine-8-carboxylic acid], for which the EC50 is 10 to 50 µM.

For the molecule `O=C(NCCN1CCN(C(=O)NC(C(=O)N[C@H]2Cc3ccc(F)c(C(=O)O)c3OB2O)c2cc(F)c(O)c(O)c2Cl)C(=O)C1=O)c1ccccc1` (stereo partly drawn) [Example 207, (3R)-3-(2-(4-(2-benzamidoethyl)-2,3-dioxopiperazine-1-carboxamido)-2-(2-chloro-5-fluoro-3,4-dihydroxyphenyl)acetamido)-7-fluoro-2-hydroxy-3,4-dihydro-2H-benzo[e][1,2]oxaborinine-8-carboxylic acid], the EC50 was in the range of 10 to 50 µM. With `CN(CCN1CCN(C(=O)N[C@@H](C(=O)N[C@H]2Cc3ccc(F)c(C(=O)O)c3OB2O)c2cc(F)c(O)c(O)c2Cl)C(=O)C1=O)Cc1ccc(N)nc1` [Example 209, (R)-3-((R)-2-(4-(2-(((6-aminopyridin-3-yl)methyl)(methyl)amino)ethyl)-2,3-dioxopiperazine-1-carboxamido)-2-(2-chloro-5-fluoro-3,4-dihydroxyphenyl)acetamido)-7-fluoro-2-hydroxy-3,4-dihydro-2H-benzo[e][1,2]oxaborinine-8-carboxylic acid], the EC50 lay in the range of 10 to 50 µM. As for `CN(CCN1CCN(C(=O)NC(C(=O)N[C@H]2Cc3ccc(F)c(C(=O)O)c3OB2O)c2cc(F)c(O)c(O)c2Cl)C(=O)C1=O)S(=O)(=O)c1ccc(C(N)=O)cc1` (stereo partly drawn) [Example 223, (3R)-3-(2-(4-(2-((4-carbamoyl-N-methylphenyl)sulfonamido)ethyl)-2,3-dioxopiperazine-1-carboxamido)-2-(2-chloro-5-fluoro-3,4-dihydroxyphenyl)acetamido)-7-fluoro-2-hydroxy-3,4-dihydro-2H-benzo[e][1,2]oxaborinine-8-carboxylic acid], the EC50 is less than 10 µM. Then `CN(CCN1CCN(C(=O)NC(C(=O)N[C@H]2Cc3ccc(F)c(C(=O)O)c3OB2O)c2cc(F)c(O)c(O)c2Cl)C(=O)C1=O)S(=O)(=O)c1cccc(C(N)=O)c1` (stereo partly drawn) [Example 224, (3R)-3-(2-(4-(2-((3-carbamoyl-N-methylphenyl)sulfonamido)ethyl)-2,3-dioxopiperazine-1-carboxamido)-2-(2-chloro-5-fluoro-3,4-dihydroxyphenyl)acetamido)-7-fluoro-2-hydroxy-3,4-dihydro-2H-benzo[e][1,2]oxaborinine-8-carboxylic acid], with less than 10 µM. As to `CN(CCN1CCN(C(=O)N[C@@H](C(=O)N[C@H]2Cc3ccc(F)c(C(=O)O)c3OB2O)c2cc(F)c(O)c(O)c2Cl)C(=O)C1=O)Cc1cccc(C(N)=O)c1` [Example 225, (R)-3-((R)-2-(4-(2-((3-carbamoylbenzyl)(methyl)amino)ethyl)-2,3-dioxopiperazine-1-carboxamido)-2-(2-chloro-5-fluoro-3,4-dihydroxyphenyl)acetamido)-7-fluoro-2-hydroxy-3,4-dihydro-2H-benzo[e][1,2]oxaborinine-8-carboxylic acid], the EC50 was 10 to 50 µM.

In the case of `CN(CCN1CCN(C(=O)N[C@@H](C(=O)N[C@H]2Cc3ccc(F)c(C(=O)O)c3OB2O)c2cc(F)c(O)c(O)c2Cl)C(=O)C1=O)Cc1ccc(C(N)=O)cc1` [Example 226, (R)-3-((R)-2-(4-(2-((4-carbamoylbenzyl)(methyl)amino)ethyl)-2,3-dioxopiperazine-1-carboxamido)-2-(2-chloro-5-fluoro-3,4-dihydroxyphenyl)acetamido)-7-fluoro-2-hydroxy-3,4-dihydro-2H-benzo[e][1,2]oxaborinine-8-carboxylic acid], the EC50 lay within 10 to 50 µM.

On to `O=C(CN1CCN(C(=O)NC(C(=O)N[C@H]2Cc3ccc(F)c(C(=O)O)c3OB2O)c2cc(F)c(O)c(O)c2Cl)C(=O)C1=O)Nc1ccc(O)cc1` (stereo partly drawn) [Example 230, (3R)-3-(2-(2-chloro-5-fluoro-3,4-dihydroxyphenyl)-2-(4-(2-((4-hydroxyphenyl)amino)-2-oxoethyl)-2,3-dioxopiperazine-1-carboxamido)acetamido)-7-fluoro-2-hydroxy-3,4-dihydro-2H-benzo[e][1,2]oxaborinine-8-carboxylic acid], for which the EC50 was 10 to 50 µM. Then `O=C(NCCN1CCN(C(=O)NC(C(=O)N[C@H]2Cc3ccc(F)c(C(=O)O)c3OB2O)c2cc(F)c(O)c(O)c2Cl)C1=O)c1ccc(O)cc1` (stereo partly drawn) [Example 243, (3R)-3-(2-(2-chloro-5-fluoro-3,4-dihydroxyphenyl)-2-(3-(2-(4-hydroxybenzamido)ethyl)-2-oxoimidazolidine-1-carboxamido)acetamido)-7-fluoro-2-hydroxy-3,4-dihydro-2H-benzo[e][1,2]oxaborinine-8-carboxylic acid], with 10 to 50 µM; and `O=C(NCCN1CCN(C(=O)NC(C(=O)N[C@H]2Cc3ccc(F)c(C(=O)O)c3OB2O)c2cc(F)c(O)c(O)c2Cl)C1=O)c1cccc(O)c1` (stereo partly drawn) [Example 244, (3R)-3-(2-(2-chloro-5-fluoro-3,4-dihydroxyphenyl)-2-(3-(2-(3-hydroxybenzamido)ethyl)-2-oxoimidazolidine-1-carboxamido)acetamido)-7-fluoro-2-hydroxy-3,4-dihydro-2H-benzo[e][1,2]oxaborinine-8-carboxylic acid], with 10 to 50 µM. As to `O=C(NCCN1CCN(C(=O)NC(C(=O)N[C@H]2Cc3ccc(F)c(C(=O)O)c3OB2O)c2cc(F)c(O)c(O)c2Cl)C1=O)Nc1cccc(O)c1` (stereo partly drawn) [Example 249, (3R)-3-(2-(2-chloro-5-fluoro-3,4-dihydroxyphenyl)-2-(3-(2-(3-(3-hydroxyphenyl)ureido)ethyl)-2-oxoimidazolidine-1-carboxamido)acetamido)-7-fluoro-2-hydroxy-3,4-dihydro-2H-benzo[e][1,2]oxaborinine-8-carboxylic acid], the EC50 is 10 to 50 µM.

For the molecule `O=C(NCCCS(=O)(=O)N1CCN(C(=O)NC(C(=O)N[C@H]2Cc3ccc(F)c(C(=O)O)c3OB2O)c2cc(F)c(O)c(O)c2Cl)C1=O)c1ccncc1` (stereo partly drawn) [Example 272, (3R)-3-(2-(2-chloro-5-fluoro-3,4-dihydroxyphenyl)-2-(3-((3-(isonicotinamido)propyl)sulfonyl)-2-oxoimidazolidine-1-carboxamido)acetamido)-7-fluoro-2-hydroxy-3,4-dihydro-2H-benzo[e][1,2]oxaborinine-8-carboxylic acid], the EC50 is 10 to 50 µM.

With `O=C(NCCCS(=O)(=O)N1CCN(C(=O)NC(C(=O)N[C@H]2Cc3ccc(F)c(C(=O)O)c3OB2O)c2cc(F)c(O)c(O)c2Cl)C1=O)c1nccs1` (stereo partly drawn) [Example 274, (3R)-3-(2-(2-chloro-5-fluoro-3,4-dihydroxyphenyl)-2-(2-oxo-3-((3-(thiazole-2-carboxamido)propyl)sulfonyl)imidazolidine-1-carboxamido)acetamido)-7-fluoro-2-hydroxy-3,4-dihydro-2H-benzo[e][1,2]oxaborinine-8-carboxylic acid], the EC50 was less than 10 µM.

Source of the values: patent US20240270762A1, “PENICILLIN-BINDING PROTEIN INHIBITORS” (priority 2021, published 2024).
